This note sets out measurements from patent US12662462B2, “Salts of pyridinylmethylenepiperidine derivatives and uses thereof” (SUNSHINE LAKE PHARMA CO., LTD., priority 2020, dated 2026).

A short description of data set [1]: Solubility experiment in water. Format: physicochemical. As for the experimental part: The solubility of the present invention was determined using an Agilent 1200 High Performance Liquid Chromatograph DAD/VWD detector with an Agilent XDB-C18 model (4.6×50 mm, 5 μm). Detection wavelength was 266 nm, flow rate was 1.0 mL/min, the column temperature was 35° C., mobile phase A: acetonitrile: 0.01 M ammonium acetate=10:90 (V:V), analysis methods: acetonitrile: mobile phase A=70:30 (V:V), running time was 10 minutes.
The test sample was taken into 37° C. organic ultrapure water to prepare a supersaturated solution. After shaking for 24 h, the mixture was filtered with an aqueous filter membrane to obtain the filtrate. The solubility of the test sample in water was detected by HPLC.

A short description of data set [2]: Pharmacokinetic experiment in Beagle dogs. To be noted: oral capsules, 5 mg/kg. Format: in vivo, Beagle dog. As for the experimental part: The inventors conducted a pharmacokinetic evaluation of the salt or its crystal form of the present invention in Beagle dogs.
The test sample (i.e., the salt or crystal form of the present invention, or the compound having formula (I) of the present invention) was filled into capsules for oral administration. The animals were fasted for 12 h before the administration, and they had free drinking water. Capsules containing test samples were administered orally at a dose of 5 mg/kg. After administration, intravenous blood was collected at the following time points (about 0.15 mL of blood taken): 0.25, 0.5, 1.0, 2.0, 4.0, 6.0, 8.0 and 24 h. EDTA-K2 was added as an anticoagulant in the blood collection tube in advance, the blood sample was centrifuged at 12,000 rpm for 2 minutes, the plasma was collected, and stored at −20° C. or −70° C.
After processing the plasma samples collected above (after the frozen plasma was thawed at room temperature, it was whirled for 5 minutes to mix well, then 20 μL of plasma was taken, 120 μL of acetonitrile solution containing internal standard was added, the mixture was whirled for 5 minutes to mix well, and centrifuged at 4,000 rpm for 5 minutes, then 100 μL of the supernatant was taken, 130 μL of methanol-water (V/V=1/1) was added to mix well), a standard curve with a suitable range was established according to the concentration of the test sample, and the LC-MS/MS with AB SCIEX API5500 was used, the concentration of the test sample in the plasma sample was determined in the MRM mode, and quantitative analysis was performed. Pharmacokinetic parameters were calculated according to drug concentration-time curve using a non-compartmental method by WinNonLin 6.3 software.

Data set [3] in a line: Hygroscopicity experiment. As to conditions: 25° C., saturated ammonium chloride solution desiccator, 24 hours. Format: physicochemical. As for the experimental part:
1) A dry stoppered glass weighing bottle (outer diameter of 50 mm, height of 15 mm) was taken the day before, and placed in a 25° C.±1° C. constant temperature desiccator (a saturated ammonium chloride solution was placed at the bottom), and the weighing bottle was weighed accurately (m1).
2) An appropriate amount of the test sample was taken, and spread flat in the above weighing bottle, the thickness of the test sample was generally about 1 mm, and the weighing bottle was weighed accurately (m2).
3) The weighing bottle was open and placed under the above constant temperature and humidity conditions with the bottle cap for 24 hours.
4) The bottle cap was covered on the weighing bottle, and weighed accurately (m3), and calculate: the percentage increase in weight %=(m3−m2)/(m2−m1)×100%

A short description of data set [4]: Stability experiment (high temperature, high humidity, light). Format: physicochemical. Here is the method: (1) High temperature experiment: an appropriate amount of a batch of test samples were taken into flat weighing bottles, and spread into a thin layer ≥5 mm thick. The above weighing bottles were placed in a constant temperature box at 40° C.±2° C./75%±5% RH and/or 60° C.±2° C./75%±5% RH for 30 days, the samples were taken on the 5th, 10th, and 30th days, and tested according to the key stability inspection items: the color changes of the samples were observed, the purities of the samples were checked by HPLC, and the structure of the samples were analyzed by X-ray powder diffraction.
(2) High humidity experiment: an appropriate amount of a batch of test samples were taken into flat weighing bottles, and spread into a thin layer ≥5 mm thick. The above weighing bottles were placed at 25° C., RH 75%±5% or RH 90%±5% RH for 30 days, the samples were taken on the 5th, 10th, and 30th days, and tested according to the key stability inspection items: the color changes of the samples were observed, the purities of the samples were checked by HPLC, and the structures of the samples were analyzed by X-ray powder diffraction.
(3) Light experiment: an appropriate amount of a batch of test samples were taken into flat weighing bottles, and spread into a thin layer ≥5 mm thick. The above weighing bottles were placed and opened in a light box (with UV) at the illuminance 4500±500 lx, UV light ≤0.7 w·h/m^2 for 30 days, the samples were taken on the 5th, 10th, and 30th days, and tested according to the key stability inspection items: the color changes of the samples were observed, the purities of the samples were checked by HPLC, and the structures of the samples were analyzed by X-ray powder diffraction.

Setting [5] is: High humidity (25° C., RH 75% ± 5%), the 5th day.
Setting [6] is: High humidity (25° C., RH 75% ± 5%), the 10th day.
[7] abbreviates: High humidity (25° C., RH 75% ± 5%), the 30th day.
Setting [8] is: High humidity (25° C., RH 90% ± 5%), the 5th day.
[9] abbreviates: High humidity (25° C., RH 90% ± 5%), the 10th day.
Where [10] appears, read: High humidity (25° C., RH 90% ± 5%), the 30th day.
Where [11] appears, read: High temperature (40° C.), the 5th day.
The mark [12] stands for this setting: High temperature (40° C.), the 10th day.
The mark [13] stands for this setting: High temperature (40° C.), the 30th day.
The mark [14] stands for this setting: High temperature (60° C.), the 5th day.
[15] abbreviates: High temperature (60° C.), the 10th day.
The mark [16] stands for this setting: High temperature (60° C.), the 30th day.

The structures appear in SMILES notation. Like-named read-outs stand apart in the source and are kept apart here.

As a reminder, the AUC(0-t) is exposure summed from dosing to a finite time, without extrapolation to infinity. The Cmax is the maximum level reached in the sampled fluid or tissue. Broadly, the Tmax is the time at which the peak concentration occurs. On to `CN1CCC(=C(F)c2cccc(NC(=O)c3c(F)cc(F)cc3F)n2)CC1` [Compound having formula (I), 2,4,6-trifluoro-N-(6-(fluoro(1-methylpiperidin-4-ylidene)methyl)pyridin-2-yl)benzamide], for which the “Water solubility (in words)” value in data set [1] is on record as “poor water solubility”. The solubility thermodynamic at 24 h in data set [1] (thermodynamic from solid, 37° C. water, shaking for 24 h, read-out: Concentration of compound having formula (I) in saturated aqueous solution) stood at 2590 µg/mL. The same compound returned an AUC(0-t) in data set [2] (dog, plasma) of 117 ng·h/mL. For the same compound, the highest concentration (Cmax) in data set [2] (dog, plasma, read-out: Cmax) came out at 0.0328 µg/mL. The Tmax in data set [2] (dog, plasma, read-out: Tmax) came out at 3.67 h.

As for `CN1CCC(=C(F)c2cccc(NC(=O)c3c(F)cc(F)cc3F)n2)CC1.CS(=O)(=O)O` [Example 1], the “Concentration of compound having formula (I) in saturated aqueous solution” value in data set [1] (37° C. water, shaking for 24 h) amounted to 300880 µg/mL. The compound also gave an AUClast in data set [2] of 238 ng·h/mL. In data set [2], the maximum concentration (Cmax) was determined as 0.0999 µg/mL. Further, the Tmax in data set [2] came out at 0.667 h. Also, the Hygroscopic feature entry in data set [3] is “no or almost no hygroscopicity”. Moreover, the Appearance entry in data set [4] (0 day), in data set [4] (setting [5]), in data set [4] (setting [6]), in data set [4] (setting [7]), in data set [4] (setting [8]) and in data set [4] (setting [9]) was “white” in each case. Also, the Appearance entry in data set [4] (setting [10]), in data set [4] (setting [11]), in data set [4] (setting [12]), in data set [4] (setting [13]), in data set [4] (setting [14]) and in data set [4] (setting [15]) was “white” in each case. Further, the Appearance entry in data set [4] (setting [16]) was “white”; in data set [4] (Light, the 5th day) it was “white”; in data set [4] (Light, the 10th day), “white”; in data set [4] (Light, the 30th day), “white”. Further, the Purity is given as 99.66% in data set [4] (0 day); 99.71% in data set [4] (setting [5]); 99.74% in data set [4] (setting [6]); 99.77% in data set [4] (setting [7]); 99.68% in data set [4] (setting [8]); 99.71% in data set [4] (setting [9]). The Purity in data set [4] (setting [10]) was 99.72%; in data set [4] (setting [11]), 99.73%; in data set [4] (setting [12]) it was 99.72%; in data set [4] (setting [13]), 99.79%; in data set [4] (setting [14]) it was 99.72%; in data set [4] (setting [15]), 99.74%. The Purity was found to be 99.8% in data set [4] (setting [16]); 99.59% in data set [4] (Light, the 5th day); 99.43% in data set [4] (Light, the 10th day); 97.66% in data set [4] (Light, the 30th day). Further, in data set [4] (high temperature, high humidity and light, 30 days), the “Changes of appearance, purity and crystal form” value is recorded as “no obvious changes”.

For `CN1CCC(=C(F)c2cccc(NC(=O)c3c(F)cc(F)cc3F)n2)CC1.O=S(=O)(O)c1ccccc1` [Example 3], the “Concentration of compound having formula (I) in saturated aqueous solution” value in data set [1] (37° C. water, shaking for 24 h) was 1890 µg/mL.
